# Measurements taken from publication PMC6277767, “Broad and Region-Specific Impacts of the Synthetic Cannabinoid CP 55,940 in Adolescent and Adult Female Mouse Brains” (Frontiers in Molecular Neuroscience, 2018).
# Test system: CD1 female mouse brain lipidome
# Experiment: Brain-region lipid levels (HPLC/MS/MS lipidomics) 2 h after single i.p. 3 mg/kg CP 55,940 vs vehicle
# Type: in vivo
# Settings: hippocampus
# Experimental: The Bloomington Institutional Animal Care and Use Committee of Indiana University reviewed and approved the animal procedures. Female mice from the CD1 strain were utilized to match our study examining THC’s effects on the brain lipidome ([Leishman et al., 2018]). Mice were given a single i.p. injection of either 3 mg/kg CP or 1:1:18 cremophor:ethanol:saline vehicle (please refer to the section “3 mg/kg CP Is Relevant for Synthetic Cannabinoid Abuse and Has Stronger Effects on the Female Mouse Brain Lipidome During Adolescence” for a justification of dose and use of female mice). Three different age groups were given injections: PND 35 and PND 50 adolescents, and adult mice (PND 113). At least eight mice in each age group received CP and at least eight received vehicle. Matching the THC study time course ([Leishman et al., 2018]), mice were sacrificed via rapid decapitation 2 h after injection. Brains were immediately removed and flash-frozen in liquid nitrogen, and then stored at -80°C until dissections were performed. Brains were dissected on an ice-cold dissection plate into the following regions: STR, HIPP, CER, THAL, CTX, HYP, MID, and STEM. These abbreviations for these brain areas will be used exclusively when discussing the results generated by these specific dissections. Each dissected area was immediately placed in liquid nitrogen and then stored at -80°C until used for lipid extraction.
# Tissue extracts were performed as previously described ([Bradshaw et al., 2006]; [Stuart et al., 2013]; [Raboune et al., 2014]; [Leishman et al., 2016a],[b], [2017], [2018]). First, samples were shock frozen in liquid nitrogen, weighed, and transferred to a centrifuge tube. The mass of the largest sample was multiplied by 50 to determine how many milliliters of HPLC-grade methanol (Fisher, Fair Lawn, NJ, United States) to add. Then, samples were spiked with 500 pmol deuterium-labeled NAGly (d8NAGly; Cayman Chemical, Ann Arbor, MI, United States). Samples were placed on ice in darkness for 2 h then individually homogenized and centrifuged at 19,000 × g for 20 min at 20°C. Supernatants were diluted with HPLC water (purified in house) to make a solution of 75% water, 25% supernatant. Lipids were partially purified on C18 solid phase extraction columns (Agilent, Palo Alto, CA, United States). A series of four elutions with 1.5 mL of 60%, 75%, 85%, and 100% methanol were collected ([Stuart et al., 2013]; [Leishman et al., 2016a],[b], [2018]).
# As previously described ([Bradshaw et al., 2006]; [Tan et al., 2006]; [Smoum et al., 2010]; [Stuart et al., 2013]; [Tortoriello et al., 2013]; [Raboune et al., 2014]; [Leishman et al., 2016a],[b], [2017], [2018]), samples were analyzed using an Applied Biosystems API 3000 triple quadrupole mass spectrometer with electrospray ionization (Foster City, CA, United States). Using an Agilent XDB-C18 reversed phase analytical column and optimized mobile phase gradients, 20 μL from each elution were chromatographed. Two Shimadzu 10ADvp pumps (Columbia, MD, United States) provided the pressure for gradient elution. Mobile phase A: 20% methanol, 80% water (v/v) and 1 mM ammonium acetate (Sigma, St. Louis, MO, United States). Mobile phase B: 100% methanol, 1 mM ammonium acetate. Every method run began with 0% mobile phase B, reached 100% mobile phase B flowing at 0.2 mL/min, and gradually returned to 0% mobile phase B.
# This screening library will be referred to as the lipidome when discussing data from this study. HPLC/MS/MS data were analyzed using Analyst software (Applied Biosystems) ([Bradshaw et al., 2006]; [Tan et al., 2006]; [Stuart et al., 2013]; [Tortoriello et al., 2013]; [Raboune et al., 2014]; [Leishman et al., 2016a],[b], [2017], [2018]). Chromatograms (Supplementary Figure 3) were generated by determining the retention time of analytes from the analytical column with a [M-1] or [M+1] parent peak and a fragmentation peak corresponding to the programmed values. […]
# [1] = PND 50, 3 mg/kg CP 55,940 vs Veh
# [2] = PND 50 female mice, 3mg/kg CP 55,940, mean
smiles,measurement,setting,value
"CCCCCCC(C)(C)c1ccc([C@@H]2C[C@H](O)CC[C@H]2CCCO)c(O)c1 [CP 55,940]","Linoleic acid, Magnitude (x Veh level)",[1],0.73 x Veh level
same,N-arachidonoyl alanine Magnitude (x Veh level),[1],0.71 x Veh level
same,"N-arachidonoyl alanine, Direction (relative to Veh)",[1],↓
same,"N-arachidonoyl ethanolamine, Direction (relative to Veh)",[1],↓
same,"N-arachidonoyl ethanolamine, Magnitude (x Veh level)",[1],0.64 x Veh level
same,N-arachidonoyl glycine Direction (relative to Veh),[1],↓
same,N-arachidonoyl glycine Magnitude (x Veh level),[1],0.52 x Veh level
same,N-arachidonoyl serine Direction (relative to Veh),[1],↓
same,N-arachidonoyl serine Magnitude (x Veh level),[1],0.51 x Veh level
same,N-arachidonoyl taurine Direction (relative to Veh),[1],↓
same,N-arachidonoyl taurine Magnitude (x Veh level),[1],0.69 x Veh level
same,"N-arachidonoyl tyrosine, Direction (relative to Veh)",[1],↑
same,"N-arachidonoyl tyrosine, Magnitude (x Veh level)",[1],1.38 x Veh level
same,"N-docosahexaenoyl ethanolamine, Direction (relative to Veh)",[1],↓
same,"N-docosahexaenoyl ethanolamine, Magnitude (x Veh level)",[1],0.73 x Veh level
same,"N-linoleoyl ethanolamine, Direction (relative to Veh)",[1],↓
same,"N-linoleoyl ethanolamine, Magnitude (x Veh level)",[1],0.65 x Veh level
same,N-linoleoyl serine Direction (relative to Veh),[1],↑
same,N-linoleoyl serine Magnitude (x Veh level),[1],1.32 x Veh level
same,N-oleoyl leucine Direction (relative to Veh),[1],↓
same,N-oleoyl leucine Magnitude (x Veh level),[1],0.77 x Veh level
same,"N-oleoyl serine, Direction (relative to Veh)",[1],↑
same,"N-oleoyl serine, Magnitude (x Veh level)",[1],1.27 x Veh level
same,PGE2 Direction (relative to Veh),[1],↑
same,PGE2 Magnitude (x Veh level),[1],1.15 x Veh level
same,PGF2α Direction (relative to Veh),[1],↑
same,PGF2α Magnitude (x Veh level),[1],1.22 x Veh level
same,2-arachidonoyl glycerol level,[2],2.77E-09
same,2-linoleoyl glycerol level,[2],1.81E-10
same,2-oleoyl glycerol level,[2],1.71E-09
same,2-palmitoyl glycerol level,[2],2.49E-10
same,6-ketoPGF1α level,[2],6.15E-11
same,11-OH-THC level,[2],BDL
same,11-nor-9-carboxyTHC level,[2],BDL
same,Arachidonic acid level,[2],1.73E-09
same,Cannabidiol level,[2],BDL
same,Linoleic acid level,[2],5.21E-10
same,N-arachidonoyl GABA level,[2],2.39E-11
same,N-arachidonoyl alanine level,[2],1.94E-12
same,N-arachidonoyl dopamine level,[2],BDL
same,N-arachidonoyl ethanolamine level,[2],2.58E-11
same,N-arachidonoyl glycine level,[2],4.78E-13
same,N-arachidonoyl proline level,[2],BDL
same,N-arachidonoyl serine level,[2],5.36E-13
same,N-arachidonoyl taurine level,[2],8.7E-11
same,N-arachidonoyl tryptophan level,[2],BDL
same,N-arachidonoyl tyrosine level,[2],2.3E-12
same,N-docosahexaenoyl ethanolamine level,[2],1.92E-11
same,N-docosahexaenoyl glycine level,[2],5.66E-14
same,N-docosahexaenoyl methionine level,[2],BDL
same,N-docosahexaenoyl proline level,[2],BDL
same,N-docosahexaenoyl tryptophan level,[2],BDL
same,N-docosahexaenoyl valine level,[2],BDL
same,N-linoleoyl ethanolamine level,[2],2.31E-11
same,N-linoleoyl glycine level,[2],8.35E-14
same,N-linoleoyl methionine level,[2],BDL
same,N-linoleoyl proline level,[2],BDL
same,N-linoleoyl serine level,[2],7.96E-11
same,N-linoleoyl tryptophan level,[2],BDL
same,N-linoleoyl valine level,[2],BDL
same,N-nervonoyl valine level,[2],BDL
same,N-oleoyl GABA level,[2],1.53E-11
same,N-oleoyl alanine level,[2],2.17E-12
same,N-oleoyl dopamine level,[2],BDL
same,N-oleoyl ethanolamine level,[2],8.7E-11
same,N-oleoyl glycine level,[2],1.25E-13
same,N-oleoyl leucine level,[2],7.72E-13
same,N-oleoyl phenylalanine level,[2],1.52E-13
same,N-oleoyl proline level,[2],BDL
same,N-oleoyl serine level,[2],4.19E-10
same,N-oleoyl tryptophan level,[2],BDL
same,N-palmitoyl GABA level,[2],1.72E-11
same,N-palmitoyl alanine level,[2],2.35E-12
same,N-palmitoyl ethanolamine level,[2],2.9E-11
same,N-palmitoyl glycine level,[2],5.47E-12
same,N-palmitoyl leucine level,[2],1.17E-12
same,N-palmitoyl methionine level,[2],9.9E-12
same,N-palmitoyl phenylalanine level,[2],9.31E-14
same,N-palmitoyl proline level,[2],BDL
same,N-palmitoyl serine level,[2],1.51E-11
same,N-palmitoyl tryptophan level,[2],BDL
same,N-palmitoyl tyrosine level,[2],9.92E-13
same,N-stearoyl GABA level,[2],1.36E-11
same,N-stearoyl alanine level,[2],2.21E-12
same,N-stearoyl ethanolamine level,[2],1.21E-11
same,N-stearoyl glycine level,[2],2.09E-12
same,N-stearoyl leucine level,[2],1.45E-12
same,N-stearoyl phenylalanine level,[2],9.22E-14
same,N-stearoyl proline level,[2],BDL
same,N-stearoyl serine level,[2],3.94E-11
same,N-stearoyl tryptophan level,[2],BDL
same,Oleic acid level,[2],5.52E-10
same,PGE2 level,[2],5.28E-10
same,PGF2α level,[2],3.99E-10
same,PhosphoLEA level,[2],9.47E-12
same,THC level,[2],BDL
same,"2-arachidonoyl glycerol level, Mean","adult, 3 mg/kg CP 55,940",2.63E-09
same,"2-linoleoyl glycerol level, Mean","adult, 3 mg/kg CP 55,940",1.64E-10
same,2-linoleoyl glycerol: Direction (relative to Veh),"adult, 3 mg/kg CP 55,940",↓
same,2-linoleoyl glycerol: Magnitude (x Veh level),"adult, 3 mg/kg CP 55,940",0.74 x Veh level
same,"2-oleoyl glycerol level, Mean","adult, 3 mg/kg CP 55,940",1.58E-09
same,"2-palmitoyl glycerol level, Mean","adult, 3 mg/kg CP 55,940",1.43E-10
